Experimental data reported in patent US10174021B2, “Substituted pyrazolo[1,5-A]pyridines and their use” (BAYER PHARMA AKTIENGESELLSCHAFT, priority 2014, dated 2019).
Counter-ions that a name gives are not always drawn.

These compounds were tested on recombinant guanylate cyclase reporter cell line (assay: Effect on a recombinant guanylate cyclase reporter cell line). Conditions: in some cases mean values from individual determinations, read-out: MEC (minimum effective concentration).
Format: cell-based
Method: B-2. Effect on a Recombinant Guanylate Cyclase Reporter Cell Line
The cellular activity of the compounds according to the invention is determined using a recombinant guanylate cyclase reporter cell line, as described in F. Wunder et al., Anal. Biochem. 339, 104-112 (2005).
Representative MEC values (MEC=minimum effective concentration) for the compounds of the invention are shown in the table below (in some cases as mean values from individual determinations): […]

| SMILES | minimal effective concentration |
| --- | --- |
| Cc1cc(OCc2c(F)cccc2F)n2nc(C)c(-c3cn[nH]c3)c2c1 [Example 1, 7-[(2,6-Difluorobenzyl)oxy]-2,5-dimethyl-3-(1H-pyrazol-4-yl)pyrazolo[1,5-a]pyridine] | 0.03 µM |
| CC(=O)c1cccc(-c2c(C)nn3c(OCc4c(F)cccc4F)cc(C)cc23)c1 [Example 2, 1-(3-{7-[(2,6-Difluorobenzyl)oxy]-2,5-dimethylpyrazolo[1,5-a]pyridin-3-yl}phenyl)ethanone] | 0.53 µM |
| CC(=O)Nc1cccc(-c2c(C)nn3c(OCc4c(F)cccc4F)cc(C)cc23)c1 [Example 3, 1-(3-{7-[(2,6-Difluorobenzyl)oxy]-2,5-dimethylpyrazolo[1,5-a]pyridin-3-yl}phenyl)acetamide] | 0.065 µM |
| Cc1cc(OCc2c(F)cccc2F)n2nc(C)c(-c3csc(CN4CCOCC4)c3)c2c1 [Example 4, 7-[(2,6-Difluorobenzyl)oxy]-2,5-dimethyl-3-[5-(morpholin-4-ylmethyl)-3-thienyl]pyrazolo[1,5-a]pyridine] | 0.07 µM |
| Cc1cc(OCc2c(F)cccc2F)n2nc(C)c(-c3cnn(CCN4CCOCC4)c3)c2c1 [Example 5, 7-[(2,6-Difluorobenzyl)oxy]-2,5-dimethyl-3-{1-[2-(morpholin-4-yl)ethyl]-1H-pyrazol-4-yl}pyrazolo[1,5-a]pyridine] | 0.07 µM |
| Cc1cc(OCc2c(F)cccc2F)n2nc(C)c(-c3cnn(Cc4ccccc4)c3)c2c1 [Example 6, 3-(1-Benzyl-1H-pyrazol-4-yl)-7-[(2,6-difluorobenzyl)oxy]-2,5-dimethylpyrazolo[1,5-a]pyridine] | 0.1 µM |
| CCS(=O)(=O)c1cccc(-c2c(C)nn3c(OCc4c(F)cccc4F)cc(C)cc23)c1 [Example 7, 7-[(2,6-Difluorobenzyl)oxy]-3-[3-(ethylsulphonyl)phenyl]-2,5-dimethylpyrazolo[1,5-a]pyridine] | 0.065 µM |
| Cc1cc(OCc2c(F)cccc2F)n2nc(C)c(-c3cnn(-c4ccc(F)cc4)c3)c2c1 [Example 8, 7-[(2,6-Difluorobenzyl)oxy]-3-[1-(4-fluorophenyl)-1H-pyrazol-4-yl]-2,5-dimethylpyrazolo[1,5-a]pyridine] | 1 µM |
| Cc1cc(OCc2c(F)cccc2F)n2nc(C)c(-c3cnc(Cl)c(C)c3)c2c1 [Example 9, 3-(6-Chloro-5-methylpyridin-3-yl)-7-[(2,6-difluorobenzyl)oxy]-2,5-dimethylpyrazolo[1,5-a]pyridine] | 3 µM |
| CCN(C)Cc1cccc(-c2c(C)nn3c(OCc4c(F)cccc4F)cc(C)cc23)c1 [Example 10, N-(3-{7-[(2,6-Difluorobenzyl)oxy]-2,5-dimethylpyrazolo[1,5-a]pyridin-3-yl}benzyl)-N-methylethanamine] | 0.065 µM |
| Cc1cc(OCc2c(F)cccc2F)n2nc(C)c(-c3cccc(CN4CCCC4)c3)c2c1 [Example 11, 7-[(2,6-Difluorobenzyl)oxy]-2,5-dimethyl-3-[3-(pyrrolidin-1-ylmethyl)phenyl]pyrazolo[1,5-a]pyridine] | 0.03 µM |
| Cc1cc(OCc2c(F)cccc2F)n2nc(C)c(-c3cccc(C(N)=O)c3)c2c1 [Example 12, 3-{7-[(2,6-Difluorobenzyl)oxy]-2,5-dimethylpyrazolo[1,5-a]pyridin-3-yl}benzamide] | 0.055 µM |
| Cc1cc(OCc2c(F)cccc2F)n2nc(C)c(-c3cccc(NS(C)(=O)=O)c3)c2c1 [Example 13, N-(3-{7-[(2,6-Difluorobenzyl)oxy]-2,5-dimethylpyrazolo[1,5-a]pyridin-3-yl}phenyl)methansulphonamide] | 0.1 µM |
| Cc1cc(OCc2c(F)cccc2F)n2nc(C)c(-c3cccc(N4CCCC4)c3)c2c1 [Example 14, 7-[(2,6-Difluorobenzyl)oxy]-2,5-dimethyl-3-[3-(pyrrolidin-1-yl)phenyl]pyrazolo[1,5-a]pyridine] | 2 µM |
| Cc1cc(OCc2c(F)cccc2F)n2nc(C)c(-c3ccnc(N4CCNCC4)c3)c2c1 [Example 15, 7-[(2,6-Difluorobenzyl)oxy]-2,5-dimethyl-3-[2-(piperazin-1-yl)pyridin-4-yl]pyrazolo[1,5-a]pyridine] | 0.3 µM |
| Cc1cc(OCc2c(F)cccc2F)n2nc(C)c(-c3cnn(CC(C)(C)N)c3)c2c1 [Example 16, 1-(4-{7-[(2,6-Difluorobenzyl)oxy]-2,5-dimethylpyrazolo[1,5-a]pyridin-3-yl}-1H-pyrazol-1-yl)-2-methylpropane-2-amine] | 0.1 µM |
| Cc1cc(OCc2c(F)cccc2F)n2nc(C)c(-c3cc(F)ncc3F)c2c1 [Example 17, 7-[(2,6-Difluorobenzyl)oxy]-3-(2,5-difluoropyridin-4-yl)-2,5-dimethylpyrazolo[1,5-a]pyridine] | 2 µM |

| SMILES | minimal effective concentration |
| --- | --- |
| CCOC(=O)c1cncc(-c2c(C)nn3c(OCc4c(F)cccc4F)cc(C)cc23)c1 [Example 18, Ethyl 5-{7-[(2,6-difluorobenzyl)oxy]-2,5-dimethylpyrazolo[1,5-a]pyridin-3-yl}nicotinate] | 10 µM |
| Cc1cn2c(-c3cn[nH]c3)c(C)nc2c(OCc2c(F)cccc2F)n1 [Example 19, 8-[(2,6-Difluorobenzyl)oxy]-2,6-dimethyl-3-(1H-pyrazol-4-yl)imidazo[1,2-a]pyrazine trifluoroacetate] | 0.3 µM |
| Cc1cn2c(-c3nc(N)nc(N)n3)c(C)nc2c(OCc2c(F)cccc2F)n1 [Example 20, 6-{8-[(2,6-Difluorobenzyl)oxy]-2,6-dimethylimidazo[1,2-a]pyrazin-3-yl}-1,3,5-triazine-2,4-diamine trifluoroacetate] | 2 µM |
| COC(=O)CCn1cc(-c2c(C)nn3c(OCc4c(F)cccc4F)cc(C)cc23)cn1 [Example 21, Methyl 3-(4-{7-[(2,6-difluorobenzyl)oxy]-2,5-dimethylpyrazolo[1,5-a]pyridin-3-yl}-1H-pyrazol-1-yl)propanoate trifluoroacetate] | 0.03 µM |
| Cc1cc(OCc2c(F)cccc2F)n2nc(C)c(-c3cnn(CCC(=O)O)c3)c2c1 [Example 22, 3-(4-{7-[(2,6-Difluorobenzyl)oxy]-2,5-dimethylpyrazolo[1,5-a]pyridin-3-yl}-1H-pyrazol-1-yl)propanoic acid trifluoroacetate] | 0.1 µM |
| Cc1cc(OCc2c(F)cccc2F)n2nc(C)c(-c3cnn(CCC(=O)NC4CC4)c3)c2c1 [Example 23, N-Cyclopropyl-3-(4-{7-[(2,6-difluorobenzyl)oxy]-2,5-dimethylpyrazolo[1,5-a]pyridin-3-yl}-1H-pyrazol-1-yl)propanamide] | 0.03 µM |
| Cc1cc(OCc2c(F)cccc2F)n2nc(C)c(-c3cnn(CCO)c3)c2c1 [Example 24, 2-(4-{7-[(2,6-Difluorobenzyl)oxy]-2,5-dimethylpyrazolo[1,5-a]pyridin-3-yl}-1H-pyrazol-1-yl)ethanol trifluoroacetate] | 0.065 µM |
| Cc1cc(OCc2c(F)cccc2F)n2nc(C)c(-c3cnn(CCc4c(C)n[nH]c4C)c3)c2c1 [Example 25, 7-[(2,6-Difluorobenzyl)oxy]-3-{1-[2-(3,5-dimethyl-1H-pyrazol-4-yl)ethyl]-1H-pyrazol-4-yl}-2,5-dimethylpyrazolo[1,5-a]pyridine] | 0.065 µM |
| Cc1cc(OCc2c(F)cccc2F)n2nc(C)c(-c3cncc(C(=O)O)c3)c2c1 [Example 27, 5-{7-[(2,6-Difluorobenzyl)oxy]-2,5-dimethylpyrazolo[1,5-a]pyridin-3-yl}nicotinic acid] | 2 µM |
| Cc1cc(OCc2c(F)cccc2F)n2nc(C)c(-c3cncc(C(N)=O)c3)c2c1 [Example 28, 5-{7-[(2,6-Difluorobenzyl)oxy]-2,5-dimethylpyrazolo[1,5-a]pyridin-3-yl}nicotinamide] | 0.03 µM |
| Cc1cc(OCc2c(F)cccc2F)n2nc(C)c(-c3cncnc3)c2c1 [Example 29, 7-[(2,6-Difluorobenzyl)oxy]-2,5-dimethyl-3-(pyrimidin-5-yl)pyrazolo[1,5-a]pyridine] | 0.3 µM |
| Cc1cc(OCc2c(F)cccc2F)n2nc(C3CC3)c(-c3cnn(CCN4CCOCC4)c3)c2c1 [Example 30, 2-Cyclopropyl-7-[(2,6-difluorobenzyl)oxy]-5-methyl-3-{1-[2-(morpholin-4-yl)ethyl]-1H-pyrazol-4-yl}pyrazolo[1,5-a]pyridine] | 0.01 µM |
| Cc1cc(OCc2c(F)cccc2F)n2nc(C3CC3)c(-c3cn[nH]c3)c2c1 [Example 31, 2-Cyclopropyl-7-[(2,6-difluorobenzyl)oxy]-5-methyl-3-(1H-pyrazol-4-yl)pyrazolo[1,5-a]pyridine] | 0.03 µM |
| Cc1cc(OCc2c(F)ccc(F)c2F)n2nc(C)c(-c3cnn(CCN4CCOCC4)c3)c2c1 [Example 32, 2,5-Dimethyl-3-{1-[2-(morpholin-4-yl)ethyl]-1H-pyrazol-4-yl}-7-[(2,3,6-trifluorobenzyl)oxy]pyrazolo[1,5-a]pyridine trifluoroacetate] | 0.1 µM |
| Cc1cc(OCC2CCCCC2)n2nc(C)c(-c3cnn(CCN4CCOCC4)c3)c2c1 [Example 33, 7-(Cyclohexylmethoxy)-2,5-dimethyl-3-{1-[2-(morpholin-4-yl)ethyl]-1H-pyrazol-4-yl}pyrazolo[1,5-a]pyridine] | 0.1 µM |
| Cc1cc(OCc2c(F)cccc2F)n2nc(C)c(-c3nc(N)c4c(n3)NC(=O)C4(C)C)c2c1 [Example 34, 4-Amino-2-{7-[(2,6-difluorobenzyl)oxy]-2,5-dimethylpyrazolo[1,5-a]pyridin-3-yl}-5,5-dimethyl-5,7-dihydro-6H-pyrrolo[2,3-d]pyrimidin-6-one trifluoroacetate] | 1 µM |
